In patent publication US8168651B2, “Protein kinase modulators” (Cylene Pharmaceuticals, Inc., priority 2008, dated 2012):
Where two headings read alike, the source gives them in different places.

Experiments:
recombinant human PIM1 = recombinant human PIM1 (Homo sapiens (Human), UniProt P11309); experiment: PIM-1 kinase activity in cell-free in vitro assay; format: biochemical; conditions: for inhibition at 0.5 µM: 500 nM compound, read-out: PIM-1: % inh 500 nM
[1] = system: HCT-116 human colorectal carcinoma cells; experiment: Cell-proliferation assay using Alamar Blue dye; format: cell-based; conditions: Homo sapiens;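 note: cells exposed to compound for about 4 days, then Alamar Blue added and dye fluorescence read after about 4 h, compared with medium-only control wells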
K-562 [2] = experiment: Cell proliferation modulatory activity, K-562; format: cell-based; conditions: Homo sapiens, K562
MV-4-11 [3] = experiment: Cell proliferation modulatory activity, MV-4-11; format: cell-based; conditions: Homo sapiens, MV4-11
recombinant human CK2 = recombinant human CK2 (Homo sapiens (Human), UniProt P68400); experiment: CK2 assay (cell-free, 33P-ATP filter plate); format: biochemical; conditions: cell-free; for inhibition at 0.5 µM: 500 nM compound, read-out: CK2: % inh 500 nM
Flt3 = Flt3 (Homo sapiens (Human), UniProt P36888); experiment: FLT-3 kinase activity in cell free in vitro assay; format: biochemical; conditions: cell-free; read-out: FLT-3
K-562 [4] = experiment: Cell proliferation modulatory activity, K-562; format: cell-based; conditions: Homo sapiens, K562; Table 45; read-out: K-562 IC50
phosphoBAD ser 112 = phosphoBAD ser 112 IC50; format: cell-based; conditions: read-out: phosphoBAD ser 112 IC50; Table 45
[5] = system: MiaPaca human pancreatic carcinoma cells; experiment: Cell-proliferation assay using Alamar Blue dye; format: cell-based; conditions: MIA PaCa-2, Table 45
Procedure: A representative cell-proliferation assay protocol using Alamar Blue dye (stored at 4° C., use 20 ul per well) is described hereafter.
• a. Split and trypsinize cells. • b. Count cells using hemocytometer. • c. Plate 4,000-5,000 cells per well in 100 μl of medium and seed into a 96-well plate according to the following plate layout. Add cell culture medium only to wells B10 to B12. Wells B1 to B9 have cells but no compound added.
• d. Add 100 μl of 2× drug dilution to each well in a concentration shown in the plate layout above. At the same time, add 100 μl of media into the control wells (wells B10 to B12). Total volume is 200 μl/well. • e. Incubate four (4) days at 37° C., 5% CO2 in a humidified incubator. • f. Add 20 μl Alamar Blue reagent to each well. • g. Incubate for four (4) hours at 37° C., 5% CO2 in a humidified incubator. • h. Record fluorescence at an excitation wavelength of 544 nm and emission wavelength of 590 nm using a microplate reader.
In the assays, cells are cultured with a test compound for approximately four days, the dye then is added to the cells and fluorescence of […] dye is detected after approximately four hours. Different types of cells can be utilized in the assays (e.g., HCT-116 human colorectal carcinoma cells, PC-3 human prostatic cancer cells and MiaPaca human pancreatic carcinoma cells). Anti-proliferative effects of representative compounds are provided hereafter

PIM2 = PIM2 (Homo sapiens (Human), UniProt Q9P1W9); experiment: PIM2 IC50; format: biochemical; conditions: Table 45
MV-4-11 [6] = experiment: Cell proliferation modulatory activity, MV-4-11; format: cell-based; conditions: Homo sapiens, MV4-11; Table 45; read-out: MV-4-11 IC50
MDAMB231 = MDAMB231 IC50; format: cell-based; conditions: Homo sapiens, MDA-MB-231; Table 45
[7] = HCT-116, read-out: HCT-116 (uM), cell proliferation modulatory activity, HCT-116, first column
[8] = HCT-116, read-out: HCT-116 (uM), cell proliferation modulatory activity, HCT-116, second column
[9] = HCT-116, HCT-116, second column, read-out: HCT-116 (uM), cell proliferation modulatory activity

PIM2, sequence (Q9P1W9 whole entry): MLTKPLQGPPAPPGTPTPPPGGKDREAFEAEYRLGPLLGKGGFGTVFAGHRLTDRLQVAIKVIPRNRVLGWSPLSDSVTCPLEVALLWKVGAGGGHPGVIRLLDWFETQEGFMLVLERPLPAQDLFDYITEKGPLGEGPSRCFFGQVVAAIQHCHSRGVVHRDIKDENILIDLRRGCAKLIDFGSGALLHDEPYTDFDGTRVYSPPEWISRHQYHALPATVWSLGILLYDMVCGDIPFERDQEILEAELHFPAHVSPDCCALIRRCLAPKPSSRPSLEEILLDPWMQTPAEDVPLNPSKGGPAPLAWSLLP
Flt3, sequence (P36888 27-993): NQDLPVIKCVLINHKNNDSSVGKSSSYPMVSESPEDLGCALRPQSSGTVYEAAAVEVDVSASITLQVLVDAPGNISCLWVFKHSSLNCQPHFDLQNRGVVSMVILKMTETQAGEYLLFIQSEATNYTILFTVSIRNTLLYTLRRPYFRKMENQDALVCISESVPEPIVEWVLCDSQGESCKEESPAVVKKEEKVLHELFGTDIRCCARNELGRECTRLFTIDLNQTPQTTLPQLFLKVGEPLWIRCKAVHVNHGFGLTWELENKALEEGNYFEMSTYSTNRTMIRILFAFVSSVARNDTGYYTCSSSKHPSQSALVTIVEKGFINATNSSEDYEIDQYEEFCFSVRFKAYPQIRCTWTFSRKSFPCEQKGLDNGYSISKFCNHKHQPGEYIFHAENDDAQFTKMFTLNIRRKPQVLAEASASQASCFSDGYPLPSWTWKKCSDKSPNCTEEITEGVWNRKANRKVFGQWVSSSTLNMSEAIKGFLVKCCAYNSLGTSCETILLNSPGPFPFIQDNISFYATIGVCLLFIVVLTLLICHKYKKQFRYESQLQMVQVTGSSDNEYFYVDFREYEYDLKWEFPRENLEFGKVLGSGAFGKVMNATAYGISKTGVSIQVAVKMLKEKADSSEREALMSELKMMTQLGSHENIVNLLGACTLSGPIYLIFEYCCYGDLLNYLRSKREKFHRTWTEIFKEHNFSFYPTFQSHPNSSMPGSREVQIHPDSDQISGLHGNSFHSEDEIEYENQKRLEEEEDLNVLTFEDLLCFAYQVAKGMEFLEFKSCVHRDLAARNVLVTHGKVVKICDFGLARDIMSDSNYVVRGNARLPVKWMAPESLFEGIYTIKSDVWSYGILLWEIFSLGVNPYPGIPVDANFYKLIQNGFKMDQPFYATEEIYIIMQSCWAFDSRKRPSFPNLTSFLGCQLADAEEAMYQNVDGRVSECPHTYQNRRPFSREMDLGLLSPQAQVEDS
recombinant human PIM1, sequence (P11309 whole entry): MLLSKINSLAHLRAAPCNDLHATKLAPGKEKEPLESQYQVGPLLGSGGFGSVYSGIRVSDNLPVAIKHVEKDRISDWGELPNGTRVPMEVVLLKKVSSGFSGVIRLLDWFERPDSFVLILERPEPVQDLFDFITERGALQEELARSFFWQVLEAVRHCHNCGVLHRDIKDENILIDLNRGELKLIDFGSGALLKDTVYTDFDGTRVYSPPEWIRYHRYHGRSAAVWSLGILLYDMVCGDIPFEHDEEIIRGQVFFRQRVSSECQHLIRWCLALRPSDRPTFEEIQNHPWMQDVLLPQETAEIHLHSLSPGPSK
recombinant human CK2, sequence (P68400 whole entry): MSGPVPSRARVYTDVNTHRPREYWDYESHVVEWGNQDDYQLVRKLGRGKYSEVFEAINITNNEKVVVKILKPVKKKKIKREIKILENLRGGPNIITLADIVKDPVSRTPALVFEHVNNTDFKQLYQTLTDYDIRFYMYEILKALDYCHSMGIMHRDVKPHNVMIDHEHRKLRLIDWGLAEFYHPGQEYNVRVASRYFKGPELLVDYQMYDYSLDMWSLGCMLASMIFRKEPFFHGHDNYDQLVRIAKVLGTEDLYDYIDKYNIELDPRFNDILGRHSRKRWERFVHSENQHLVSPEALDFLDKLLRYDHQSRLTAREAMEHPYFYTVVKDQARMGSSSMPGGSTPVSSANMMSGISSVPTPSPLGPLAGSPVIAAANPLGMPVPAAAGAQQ
recombinant human CK2, sequence (P67870 whole entry partner): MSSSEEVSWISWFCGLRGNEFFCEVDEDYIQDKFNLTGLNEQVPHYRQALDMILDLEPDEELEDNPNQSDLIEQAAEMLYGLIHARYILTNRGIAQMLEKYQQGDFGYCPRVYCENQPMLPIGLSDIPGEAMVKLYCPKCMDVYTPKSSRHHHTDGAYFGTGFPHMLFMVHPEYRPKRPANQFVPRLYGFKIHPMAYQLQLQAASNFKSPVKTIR

Compound | inhibition at 0.5 µM (recombinant human PIM1; cell-free) [%] | IC50 (K-562 [2]) [µM] | IC50 (MV-4-11 [3]) [µM] | IC50 (recombinant human PIM1; cell-free) [nM] | further results
CN(C)CCNc1nc2cc(C(=O)O)ccc2c2sccc12 | 83.4 | > 10 | > 10 |  | IC50 [1, 7]: 10 µM
O=C(O)c1ccc2c(c1)nc(NCCN1CCCC1)c1ccsc12 | 67.2 | > 10 | > 10 | 244 | IC50 [1, 7]: 10 µM
c1ccc(Nc2nc3cc(-c4nnn[nH]4)ccc3c3sccc23)cc1 | 70.9 | > 10 | 1.09 | 262 | IC50 [1, 7]: 10 µM
CN(c1ccccc1)c1nc2cc(C(=O)O)ccc2c2sccc12 | 61.4 | > 10 | > 10 | 404 | IC50 [1, 7]: 10 µM
CN(C)CCNc1nc2cc(-c3nnn[nH]3)ccc2c2sccc12 | 92.9 | > 10 | > 10 | 47 | IC50 [1, 7]: 10 µM; IC50 [1, 8]: > 10 µM
Fc1ccc(Nc2nc3cc(-c4nnn[nH]4)ccc3c3sccc23)cc1 | 74.3 | > 10 | 4.53 | 174 | IC50 [1, 7]: 10 µM
FC(F)(F)c1cccc(Nc2nc3cc(-c4nnn[nH]4)ccc3c3sccc23)c1 | 59 | > 10 | 0.093 | 205 | IC50 [1, 9]: > 10 µM; IC50 (recombinant human CK2; 15 um ATP, read-out: CK2 (15 um ATP) IC50): 458 nM; IC50 (recombinant human CK2; 20 um ATP, read-out: CK2 (20 um ATP) IC50): 406 nM; IC50 (Flt3): > 400 nM
OCc1cccc(Nc2nc3cc(-c4nnn[nH]4)ccc3c3sccc23)c1 | 87.6 | > 10 | 0.609 | 162 | 
NS(=O)(=O)c1cccc(Nc2nc3cc(-c4nnn[nH]4)ccc3c3sccc23)c1 | 83.9 | > 10 | > 10 | 88 | IC50 [1, 8]: 10 µM
Brc1cccc(Nc2nc3cc(-c4nnn[nH]4)ccc3c3sccc23)c1 | 65.9 | > 10 | 0.549 | 220 | IC50 [1, 8]: > 10 µM
Fc1cccc(Nc2nc3cc(-c4nnn[nH]4)ccc3c3sccc23)c1 | 76.6 | > 10 | 0.525 | 138 | IC50 (Flt3): > 400 nM
CN(C)CCNC(=O)Cc1cccc(Nc2nc3cc(C(=O)O)ccc3c3sccc23)c1 | 69.2 | > 10 | > 10 | 283 | IC50 [1, 9]: > 10 µM; inhibition at 0.5 µM (recombinant human CK2): 53.3%
CNS(=O)(=O)c1cccc(Nc2nc3cc(C(=O)O)ccc3c3sccc23)c1 | 82.8 | > 10 | > 10 | 159 | IC50 [1, 8]: > 10 µM
Fc1ccc(Nc2nc3c(-c4nnc[nH]4)cccc3c3cnccc23)c(Cl)c1 |  |  |  |  | IC50 (K-562 [4]): < 500 nM; IC50 (phosphoBAD ser 112): < 500 nM; IC50 (recombinant human PIM1; Table 45): < 100 nM; IC50 [5]: > 10000 nM; IC50 (PIM2): < 100 nM; IC50 (MV-4-11 [6]): < 500 nM
COc1ccc(Nc2nc3c(-c4nc[nH]n4)cccc3c3cnccc23)cc1 |  |  |  |  | IC50 (K-562 [4]): < 500 nM; IC50 (phosphoBAD ser 112): < 100 nM; IC50 (recombinant human PIM1; Table 45): < 100 nM; IC50 [5]: < 500 nM; IC50 (PIM2): < 100 nM; IC50 (MV-4-11 [6]): < 100 nM
Cc1ccccc1Nc1nc2c(-c3nnc[nH]3)cccc2c2cnccc12 |  |  |  |  | IC50 (K-562 [4]): < 1000 nM; IC50 [5]: < 1000 nM; IC50 (MDAMB231): > 10000 nM
Fc1ccccc1Nc1nc2c(-c3nnc[nH]3)cccc2c2cnccc12 |  |  |  |  | IC50 (K-562 [4]): < 500 nM; IC50 (phosphoBAD ser 112): < 5000 nM; IC50 (recombinant human PIM1; Table 45): < 100 nM; IC50 [5]: < 1000 nM; IC50 (PIM2): < 100 nM; IC50 (MV-4-11 [6]): < 100 nM
Cc1ccc(F)cc1Nc1nc2c(-c3nnc[nH]3)cccc2c2cnccc12 |  |  |  |  | IC50 (K-562 [4]): > 10000 nM; IC50 (PIM2): < 100 nM; IC50 (MDAMB231): > 10000 nM
Clc1cccc(Nc2nc3c(-c4nc[nH]n4)cccc3c3ccncc23)c1 |  |  |  |  | IC50 (K-562 [4]): > 10000 nM; IC50 (recombinant human PIM1; Table 45): < 100 nM; IC50 [5]: > 10000 nM; IC50 (PIM2): < 500 nM; IC50 (MV-4-11 [6]): > 10000 nM; IC50 (MDAMB231): > 10000 nM
N#Cc1cccc(Nc2nc3c(-c4nc[nH]n4)cccc3c3cnccc23)c1 |  |  |  |  | IC50 (K-562 [4]): > 10000 nM; IC50 (phosphoBAD ser 112): < 5000 nM; IC50 (recombinant human PIM1; Table 45): < 100 nM; IC50 [5]: > 10000 nM; IC50 (PIM2): > 1100 nM; IC50 (MV-4-11 [6]): < 100 nM
c1cc(-c2nc[nH]n2)c2nc(NCC3CC3)c3ccncc3c2c1 |  |  |  |  | IC50 (K-562 [4]): > 10000 nM; IC50 (phosphoBAD ser 112): < 100 nM; IC50 (recombinant human PIM1; Table 45): < 100 nM; IC50 [5]: < 10000 nM; IC50 (PIM2): < 500 nM; IC50 (MV-4-11 [6]): < 100 nM
Fc1cccc(Nc2nc3c(-c4nnc[nH]4)cccc3c3cnccc23)c1 |  |  |  |  | IC50 (phosphoBAD ser 112): < 500 nM; IC50 (recombinant human PIM1; Table 45): < 100 nM; IC50 [5]: < 1000 nM; IC50 (MV-4-11 [6]): < 500 nM
FC(F)(F)c1cccc(Nc2nc3c(-c4nnc[nH]4)cccc3c3cnccc23)c1 |  |  |  |  | IC50 (K-562 [4]): < 5000 nM; IC50 (phosphoBAD ser 112): < 1000 nM; IC50 (recombinant human PIM1; Table 45): < 500 nM; IC50 [5]: < 5000 nM; IC50 (PIM2): > 1100 nM; IC50 (MV-4-11 [6]): < 500 nM
NC(=O)c1cccc2c1nc(Nc1cccc(Cl)c1)c1cnccc12 |  |  |  |  | IC50 (K-562 [4]): > 10000 nM; IC50 (recombinant human PIM1; Table 45): < 500 nM; IC50 [5]: > 10000 nM; IC50 (MV-4-11 [6]): > 10000 nM; IC50 (MDAMB231): > 10000 nM
Clc1ccccc1Nc1nc2c(-c3nnc[nH]3)cccc2c2cnccc12 [drawing 2209] |  |  |  |  | IC50 (K-562 [4]): < 5000 nM; IC50 [5]: < 500 nM; IC50 (PIM2): < 100 nM; IC50 (MDAMB231): < 500 nM

Continued, in another order:

inhibition at 0.5 µM (recombinant human PIM1; cell-free) [%] | IC50 (K-562 [2]) [µM] | IC50 (MV-4-11 [3]) [µM] | IC50 (recombinant human PIM1; cell-free) [nM] | Compound | further results
80.8 | > 10 | 0.455 | 257 | O=C(O)c1ccc2c(c1)nc(Nc1ccc(F)c(Cl)c1)c1ccsc12 | IC50 [1, 7]: 10 µM
69.1 | > 10 | 0.258 | 289 | O=C(O)c1ccc2c(c1)nc(Nc1ccc(Cl)cc1)c1ccsc12 | IC50 [1, 7]: 10 µM
21.9 | 4.01 | 6.45 | 1020 | O=C(O)c1ccc2c(c1)nc(Nc1ccccc1)c1ccncc12 | 
63.6 | > 10 | > 10 | 242 | CN(C)CCNc1nc2cc(C(=O)O)ccc2c2cnccc12 | 
71.4 | > 10 | 0.226 | 213 | N#Cc1cccc(Nc2nc3cc(C(=O)O)ccc3c3sccc23)c1 | 
74.7 | > 10 | > 10 | 197 | O=C(O)c1ccc2c(c1)nc(Nc1cccc(C(F)(F)F)c1)c1ccsc12 | IC50 [1, 8]: > 10 µM
85.7 | > 10 | 0.658 | 239 | O=C(O)c1ccc2c(c1)nc(Nc1ccc(F)c(F)c1)c1ccsc12 | IC50 [1, 8]: 0.832 µM
48.6 | 8.2 | 0.032 | 863 | Clc1cccc(Nc2nc3cc(-c4nnn[nH]4)ccc3c3cnccc23)c1 | IC50 (Flt3): 305 nM
90 | > 10 | 0.745 | 299 | O=C(O)c1ccc2c(c1)nc(Nc1cc(F)cc(Cl)c1)c1ccsc12 | IC50 [1, 8]: > 10 µM
92.4 | 3.26 | > 10 | 111 | O=C(O)c1ccc2c(c1)nc(Nc1cc(F)cc(F)c1)c1ccncc12 | IC50 [1, 8]: 4.33 µM
87 | > 10 | 1.46 | 252 | N#Cc1cc(F)cc(Nc2nc3cc(C(=O)O)ccc3c3sccc23)c1 | IC50 [1, 8]: > 10 µM
92.4 | 9.15 | > 10 | 58 | N#Cc1cccc(Nc2nc3cc(C(=O)O)ccc3c3cnccc23)c1 | IC50 (Flt3): 12 nM
86.9 | > 10 | 2.2 | 414 | Fc1cc(F)cc(Nc2nc3cc(-c4nnn[nH]4)ccc3c3sccc23)c1 | IC50 [1, 8]: > 10 µM
7.83 | 0.217 | 0.161 |  | COC(=O)c1ccc2c(c1)nc(Nc1cccc(Cl)c1)c1ccncc12 | inhibition at 0.5 µM (recombinant human CK2): 13.4%; IC50 (Flt3): > 400 nM
